Test results as given in ChEMBL document CHEMBL6134922 (ACS Med Chem Lett, 2025).
Blank lines part the entries; values can stand above or below the compound they belong to.

Tests used:
[1] = Plasma protein binding in mouse assessed as unbound fraction at 5 uM incubated for 6 hrs by equilibrium dialysis based HPLC analysis; format: ADME, cell-free
[2] = Plasma protein binding in human assessed as unbound fraction at 5 uM incubated for 6 hrs by equilibrium dialysis based HPLC analysis; format: ADME, cell-free
[3] = AUC in CD-1 mouse at 10 mg/kg, po measured up to 24 hrs by LC-MS/MS analysis; format: ADME, organism-based; conditions: in vivo
[4] = Cmax in CD-1 mouse at 10 mg/kg, ip measured up to 24 hrs by LC-MS/MS analysis; format: ADME, organism-based; conditions: in vivo
[5] = Unbound fraction in mouse brain at 5 uM incubated for 6 hrs by equilibrium dialysis based HPLC analysis; format: ADME, tissue-based
[6] = Unbound fraction in rat brain at 5 uM incubated for 6 hrs by equilibrium dialysis based HPLC analysis; format: ADME, tissue-based
[7] = AUC in CD-1 mouse at 10 mg/kg, ip measured up to 24 hrs by LC-MS/MS analysis; format: ADME, organism-based; conditions: in vivo
[8] = Cmax in CD-1 mouse at 10 mg/kg, po measured up to 24 hrs by LC-MS/MS analysis; format: ADME, organism-based; conditions: in vivo
[9] = Plasma protein binding in mouse assessed as bound fraction at 5 uM incubated for 6 hrs by equilibrium dialysis based HPLC analysis
[10] = Plasma protein binding in human assessed as percent bound at 5 uM incubated for 6 hrs by equilibrium dialysis based HPLC analysis

- fraction unbound at 6 h, 5 µM [1]: > 0.999
- fraction unbound at 6 h, 5 µM [2]: > 0.999
SMILES: Cc1cc(C#Cc2cccc(F)c2)cnc1NC(=O)c1cc(NC(=O)OC(C)(C)C)ccc1Cl

- fraction unbound at 6 h, 5 µM [1]: > 0.999
SMILES: CC(C)(C)OC(=O)Nc1ccc(Cl)c(C(=O)Nc2ncc(C#Cc3ccccc3)cc2Cl)c1

- AUC at 24 h [3]: 2.27 µM·h
- Cmax [4]: 888 nM
- fraction unbound at 6 h, 5 µM [5]: 0.994
- fraction unbound at 6 h, 5 µM [6]: > 0.999
- AUC at 24 h [7]: 12.3 µM·h
- Cmax [8]: 252 nM
SMILES: Cc1cc(C#Cc2ccc(F)cc2)cnc1NC(=O)c1cc(NC(=O)OC(C)(C)C)ccc1Cl

- plasma protein binding (% bound) [9]: 98.7%
- plasma protein binding (% bound) [10]: 99.5%
SMILES: Cc1cc(C#Cc2ccccc2)cnc1NC(=O)c1cc(NC(=O)OC(C)(C)C)ccc1Cl

- plasma protein binding (% bound) [9]: 98.9%
- plasma protein binding (% bound) [10]: 99.8%
SMILES: CC(C)(C)OC(=O)Nc1ccc(Cl)c(C(=O)Nc2ncc(C#Cc3ccccc3)cc2F)c1
